Measurements taken from patent publication US20260041744A1, “Methods for Treating Pompe Disease” (Amicus Therapeutics, Inc., priority 2022, published 2026).

Tests used:
[1] = system: adult subjects with late-onset Pompe disease (LOPD); experiment: Study ATB200-03: SGIC, PGIC and additional PROs (PROMIS-dyspnea, PROMIS-upper extremity, R-PAct, EQ-5D-5L); type: in vivo, human; conditions: week 52
Source text: Additional PROs included PROMIS-dyspnea, PROMIS-upper extremity, R-PACT, EQ-5D-5L, SGIC. The PGIC was also included.
Across all of these domains a greater percentage of patients in the overall population treated with cipaglucosidase alfa/miglustat reported improvement, and a lower percentage reported worsening, compared with patients treated with alglucosidase alfa. […] Results are shown below for the SGIC overall physical well-domain, which is representative of the benefits reported across these measures (FIG. 86).

[2] = system: adults with Pompe disease; experiment: Study ATB200-02: urine Hex4; conditions: for mean reduction from baseline in urine Hex4: b512 prints a minus sign;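 on all read-outs here: Hex4 is the urine glucose tetrasaccharide biomarker, measured at regular intervals during study follow-up and compared with each patient's baseline value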
Procedure: The change from baseline (CFBL) in 6MWD, % predicted sitting FVC, manual muscle test (MMT) and biomarkers—urine glucose tetrasaccharide (Hex4) and serum creatine kinase (CK)—were assessed at regular intervals.

[3] = system: adults with Pompe disease; experiment: Study ATB200-02: GSGC, 10MWT, TUG; type: in vivo, human
Source text: The study design includes 4 stages and 4 cohorts, with Stages 1 and 2 only for Cohort 1 and Stages 3 and 4 for all 4 cohorts (FIG. 79).
The 4 cohorts in the study are as follows: • Cohort 1: ERT-experienced (2 to 6 years) ambulatory subjects (11 subjects) • Cohort 2: ERT-experienced (≥2 years) non-ambulatory subjects (6 subjects) • Cohort 3: ERT-naïve ambulatory subjects (6 subjects)· • Cohort 4: ERT-experienced (≥7 years) ambulatory subjects (6 subjects)

[4] = system: adult subjects with late-onset Pompe disease (LOPD); experiment: Study ATB200-03 (PROPEL): GSGC total score; type: in vivo, human; conditions: for CHG to Week 52 in GSGC total score, LS Mean: MMRM, actual time point of assessments, decrease indicates improvement; for GSGC total score CHG, LS means (SE): Week 52, ANCOVA
Procedure: The test for the primary endpoint was conducted first at the 1-sided 0.025 significance level, and if significant, the ordered key secondary endpoints were similarly tested at the same significance level. […] A nonparametric randomization based ANCOVA was specified as the first sensitivity analysis for 6MWD and FVC. […] For the purposes of data presentation in this document, 2-sided p-values are reported hereafter, except as otherwise noted.

[5] = system: Gaa KO mice; experiment: Single fiber analysis (LAMP1/LC3 co-immunofluorescence, white gastrocnemius); type: in vivo, mouse; conditions: single fibers
Source text: FIG. 17 depicts co-immunofluorescent staining of LAMP1 (green) (see for example, “B”) and LC3 (red) (see, for example, “A”) in single fibers isolated from the white gastrocnemius of Gaa KO mice treated with a vehicle, alglucosidase alfa, or ATB200. “C” depicts clearance of autophagic debris and absence of enlarged lysosome. A minimum of 30 fibers were examined from each animal.
As a result, a significant portion of muscle fibers analyzed (36-60%) from ATB200-treated mice appeared normal or near-normal.

[6] = Ambulatory ERT-experienced, 12 months
[7] = Ambulatory ERT-experienced, 24 months
[8] = Ambulatory ERT-experienced, 36 months
[9] = Ambulatory ERT-experienced, 48 months
[10] = Ambulatory ERT-naïve, 12 months
[11] = Ambulatory ERT-naïve, 24 months
[12] = Ambulatory ERT-naïve, 36 months
[13] = Ambulatory ERT-naïve, 48 months
[14] = Week 52-LOCF, ERT-experienced Population
[15] = Week 52-LOCF, ERT-naïve Subjects excluding Subject 4005-2511
[16] = Week 52-LOCF, ITT excluding Subject 4005-2511

For “ATB200/miglustat: two-component therapy: cipaglucosidase alfa (ATB200) administered in conjunction with miglustat (AT2221), a stabilizer of cipaglucosidase alfa”, the “SGIC and PGIC outcome” value [1] was “SGIC and PGIC showed consistently greater improvement favoring cipaglucosidase alfa/miglustat treatment”, the “Urinary Hex4, % CFBL mean” value [2, 6] was −36.11% and the “Urinary Hex4, % CFBL mean” value [2, 7] was −11.8%. For the same substance, the “Urinary Hex4, % CFBL mean” value [2, 8] was −35.1%, the “Urinary Hex4, % CFBL mean” value [2, 9] was −4.0% and the “Urinary Hex4, % CFBL mean” value [2, 10] was −40.7%. For the same substance, the “Urinary Hex4, % CFBL mean” value [2, 11] was −49.5%, the “Urinary Hex4, % CFBL mean” value [2, 12] was −39.3% and the “Urinary Hex4, % CFBL mean” value [2, 13] was −39.9%. The “mean reduction from baseline in urine Hex4” value (“mean reduction from baseline” below) ([2]; Cohort 2 (non-ambulatory ERT-experienced), 12 months, listed as cipaglucosidase alfa plus miglustat) was 15.6%, the “mean reduction from baseline” value ([2]; Cohort 2 (non-ambulatory ERT-experienced), 12 months, listed as cipaglucosidase alfa/miglustat) was −15.6% and the “mean reduction from baseline” value ([2]; Cohort 2, 24 months, listed as cipaglucosidase alfa plus miglustat) was 34.1%. For the same substance, the “mean reduction from baseline” value ([2]; Cohort 2, 24 months, listed as cipaglucosidase alfa/miglustat) was −34.1%, the “mean reduction from baseline” value ([2]; Cohort 2, 36 months, listed as cipaglucosidase alfa plus miglustat) was 36.5% and the “mean reduction from baseline” value ([2]; Cohort 2, 36 months, listed as cipaglucosidase alfa/miglustat) was −36.5%. For the same substance, the “mean reduction from baseline” value ([2]; Cohort 2, 48 months, listed as cipaglucosidase alfa plus miglustat) was 9.4%, the “mean reduction from baseline” value ([2]; Cohort 2, 48 months, listed as cipaglucosidase alfa/miglustat) was −4.0% and the “patients with abnormal baseline Hex4 who had normal Hex4 levels at Month 48” value ([2]; ERT-experienced (four of five)) was 80.0%. For the same substance, the “patients whose urine Hex4 decreased numerically from baseline (n/N)” value ([2]; ERT-experienced, 12 months) was 16/16, the “patients whose urine Hex4 decreased numerically from baseline (n/N)” value ([2]; ERT-experienced, 24 months) was 11/14 and the “patients whose urine Hex4 decreased numerically from baseline (n/N)” value ([2]; ERT-experienced, 36 months) was 11/12. For the same substance, the “patients whose urine Hex4 decreased numerically from baseline (n/N)” value ([2]; ERT-experienced, 48 months) was 6/9, the “patients with abnormal baseline Hex4 who returned to normal Hex4 levels at Month 48” value ([2]; ERT-naïve ambulatory (one of four)) was 25.0% and the “patients whose urine Hex4 decreased numerically from baseline (n/N)” value ([2]; ERT-naïve, 12 months) was 5/6. For the same substance, the “patients whose urine Hex4 decreased numerically from baseline (n/N)” value ([2]; ERT-naïve, 24 months) was 5/6, the “patients whose urine Hex4 decreased numerically from baseline (n/N)” value ([2]; ERT-naïve, 36 months) was 4/5 and the “patients whose urine Hex4 decreased numerically from baseline (n/N)” value ([2]; ERT-naïve, 48 months) was 4/5. The “Urinary Hex4, % CFBL mean” value ([2]; Non-ambulatory ERT-experienced, 12 months) was −15.6%, the “Urinary Hex4, % CFBL mean” value ([2]; Non-ambulatory ERT-experienced, 24 months) was −34.1% and the “Urinary Hex4, % CFBL mean” value ([2]; Non-ambulatory ERT-experienced, 36 months) was −36.5%. The “Urinary Hex4, % CFBL mean” value ([2]; Non-ambulatory ERT-experienced, 48 months) was −9.4 ) %, the “10-Meter Walk Test, CFBL mean” value [3, 6] was −0.1 seconds and the “Gait, Stairs, Gowers, and Chair, CFBL mean” value (“Gait, Stairs, Gowers” for short) [3, 6] was −1.3. The “Timed Up and Go, CFBL mean” value [3, 6] was -1.5 s, the “10-Meter Walk Test, CFBL mean” value [3, 7] was 1.0 seconds and the “Gait, Stairs, Gowers” value [3, 7] was −1.6. The “Timed Up and Go, CFBL mean” value [3, 7] was 0.1 s, the “10-Meter Walk Test, CFBL mean” value [3, 8] was 3.9 seconds and the “Gait, Stairs, Gowers” value [3, 8] was −1.1. The “Timed Up and Go, CFBL mean” value [3, 8] was -1.5 s, the “10-Meter Walk Test, CFBL mean” value [3, 9] was 0.6 seconds and the “Gait, Stairs, Gowers” value [3, 9] was −1.0. The “Timed Up and Go, CFBL mean” value [3, 9] was -0.6 s, the “10-Meter Walk Test, CFBL mean” value [3, 10] was −0.9 seconds and the “Gait, Stairs, Gowers” value [3, 10] was −0.8. The “Timed Up and Go, CFBL mean” value [3, 10] was -0.7 s, the “10-Meter Walk Test, CFBL mean” value [3, 11] was −0.5 seconds and the “Gait, Stairs, Gowers” value [3, 11] was −1.7. The “Timed Up and Go, CFBL mean” value [3, 11] was -1.0 s, the “10-Meter Walk Test, CFBL mean” value [3, 12] was 0.1 seconds and the “Gait, Stairs, Gowers” value [3, 12] was −2.0. For the same substance, the “Timed Up and Go, CFBL mean” value [3, 12] was 0.5 s, the “10-Meter Walk Test, CFBL mean” value [3, 13] was 0.7 seconds and the “Gait, Stairs, Gowers” value [3, 13] was −2.4. For the same substance, the “Timed Up and Go, CFBL mean” value [3, 13] was 0.3 s, the “GSGC CFB, mean” value ([3]; Cohort 1 + Cohort 3 + Cohort 4, 24-mo) was −1.7 and the “GSGC CFB, mean” value ([3]; Cohort 1 + Cohort 3 + Cohort 4, 48-mo) was −1.5. For the same substance, the “GSGC CFB, mean” value ([3]; Cohort 1 + Cohort 4 (ERT-experienced), 24-mo, negative = improvement) was −1.6, the “GSGC CFB, mean” value ([3]; Cohort 1 + Cohort 4 (ERT-experienced), 48-mo) was −1.0 and the “GSGC CFB, mean” value ([3]; Cohort 3 (ERT-naïve), 24-mo) was −1.7. For the same substance, the “GSGC CFB, mean” value ([3]; Cohort 3 (ERT-naïve), 48-mo) was −2.4 and the “other measures of motor function incl. 10MWT, GSGC, TUG” value ([3]; ERT-experienced and ERT-naïve ambulatory subjects) was “improvements in other measures of motor function”.
alglucosidase alfa [reference compound] was tested, and the “GSGC Total Score Absolute Value, Median” value ([4]; Baseline, ITT, ERT-naïve Subjects excluding Subject 4005-2511) was 9.00, the “GSGC Total Score Absolute Value, Mean” value ([4]; Baseline, ITT, ERT-naïve Subjects excluding Subject 4005-2511, 4 points (normal) to 27 points (worst)) was 10.86 and the “mean (SD) change in GSGC total score from baseline to Week 52” value (from here on “mean (SD) change in GSGC total score”) ([4]; ERT-experienced Population) was 0.6 (1.83). For the same substance, the “mean (SD) change in GSGC total score” value ([4]; ERT-naïve excluding Subject 4005-2511) was 1.3 (1.80), the “Change in GSGC total score baseline to Week 52, LS means (SE) from ANCOVA” value ([4]; ITT-LOCF, ERT-naïve Subjects excluding Subject 4005-2511) was 0.91 (1.042) and the “CHG to Week 52 in GSGC total score, LS Mean” value ([4]; ITT-OBS excluding Subject 4005-2511 (overall)) was 0.8. The “CHG to Week 52 in GSGC total score, LS Mean” value ([4]; ITT-OBS excluding Subject 4005-2511, ERT-naïve Subjects) was 1.3, the “CHG to Week 52 in GSGC total score, LS Mean” value ([4]; ITT-OBS, ERT-experienced Subjects) was 0.5 and the “GSGC Total Score Absolute Value, Mean” value [4, 14] was 15.87. The “GSGC Total Score Absolute Value, Median” value [4, 14] was 17.00, the “GSGC Total Score CHG, Mean” value [4, 14] was 0.61 and the “GSGC total score CHG, Median” value [4, 14] was 0.00. The “GSGC Total Score Absolute Value, Mean” value [4, 15] was 12.14, the “GSGC Total Score Absolute Value, Median” value [4, 15] was 10.00 and the “GSGC Total Score CHG (change from baseline), Mean” value [4, 15] was 1.29. The “GSGC Total Score CHG (change from baseline), Median” value [4, 15] was 1.00, the “GSGC Total Score Absolute Value, Median” value [4, 16] was 16.00 and the “GSGC total score Absolute Value, Mean (SD)” value [4, 16] was 15.00 (4.488). For the same substance, the “GSGC total score CHG, Mean (SD)” value [4, 16] was 0.77 (1.813), the “GSGC total score CHG, Median” value [4, 16] was 0.50 and the “GSGC total score CHG, LS means (SE)” value ([4]; ITT-LOCF excluding Subject 4005-2511) was 0.847 (0.440). For the same substance, the “GSGC total score CHG, LS means (SE)” value ([4]; ITT-LOCF, ERT-experienced Population) was 0.65 (0.494), the “GSGC outcome” value ([4]; overall (and ERT-experienced) population, week 52) was “worsening” and the “mean (SD) change in GSGC total score” value ([4]; overall population, negative = improvement, listed as alglucosidase alfa and placebo) was 0.77 (1.8). The “mean (SD) change in GSGC total score” value ([4]; overall population, negative = improvement, listed as alglucosidase alfa/placebo) was 0.77 (1.81), the “Fibers with Autophagy Buildup” value [5] was over 90% and the “Fibers with Normal or Near-normal Appearance” value [5] was under 10%.
